According to patent US7189747B2, “Method of treating noninflammatory cartilage damage” (Warner-Lambert Company, priority 2000, dated 2007):
Counter-ions that a name gives are not always drawn.

What was measured:
[1] = test system: Monosodium Iodoacetate-Induced Osteoarthritis in Rat; assay: MIA Rat: hind-paw weight distribution; format: in vivo; conditions: for % Inhibition (of cartilage damage, hind-paw weight distribution): 14 days, Day 14; for preventing or treating cartilage damage (conclusion from Table 5): MIA Rat, doses and routes of Table 5
Text: One end result of the induction of osteoarthritis in this model, as determined by histologic analysis, is the development of an osteoarthritic condition within the affected joint, as characterized by the loss of Toluidine blue staining and formation of osteophytes. Associated with the histologic changes is a concentration-dependent degradation of joint cartilage, as evidenced by affects on hind-paw weight distribution of the limb containing the affected joint, the presence of increased amounts of proteoglycan or hydroxyproline in the joint upon biochemical analysis, or histopathological analysis of the osteoarthritic lesions.
In the MIA Rat model on Day 0, the hind-paw weight differential between the right arthritic joint and the left healthy joint of male Wistar rats (150 g) were determined with an incapacitance tester, model 2KG (Linton Instrumentation, Norfolk, United Kingdom). The incapacitance tester has a chamber on top with an outwardly sloping front wall that supports a rat's front limbs, and two weight sensing pads, one for each hind paw, that facilitates this determination. Then the rats were anesthetized with isofluorine, and the right, hind leg knee joint was injected with 1.0 mg of mono-iodoacetate (“MIA”) through the infrapatellar ligament. […] The rats were further administered either a GABA analog or vehicle (in the instant case, water) daily for 14 days. The GABA analog was typically administered at a dose of 30 mg of GABA analog per kilogram of rat per day (30 mg/kg/day), but may be administered at other doses such as, for example, 10 mg/kg/day, 60 mg/kg/day, or 100 mg/kg/day according to the requirements of the compound being studied. It is well within the level of ordinary skill in the pharmaceutical arts to determine a proper dosage of a GABA analog in this model. In the instant experiment, administration of the GABA analog was optionally by oral administration or intravenous administration via an osmotic pump. After 7 and 14 days, the hind-paw weight distribution was again determined. […] Percent inhibition of cartilage damage was calculated as the percent change in hind-paw weight distribution for treated animals versus control animals:
[formula] wherein: ΔWC is the hind-paw weight differential between the healthy left limb and the arthritic limb of the control animal administered vehicle alone, as measured on Day 14; and • ΔWG is the hind-paw weight differential between the healthy left limb and the arthritic limb of the animal administered a GABA analog, as measured on Day 14.
The results of the hind-paw weight distribution data are shown below in Table 5 in the column labelled “% Inhibition”.

[2] = test system: Experimental Osteoarthritis in Rabbit; assay: EOA in Rabbit: macroscopic grading of cartilage lesions; format: in vivo
Description: (§1) Normal rabbits were anaesthetized and anteromedial incisions of the right knees performed. The anterior cruciate ligaments were visualized and sectioned. The wounds were closed and the animals were housed in individual cages, exercised, and fed ad libitum. Rabbits were given either vehicle (water), gabapentin, or 3-(1-aminomethyl-cyclohexylmethyl)-4h-[1,2,4]oxadiazol-5-one hydrochloride (10 rabbits per group). Each group was dosed three times per day with the gabapentin group receiving 100-mg/kg/dose and the 3-(1-aminomethyl-cyclohexylmethyl)-4h-[1,2,4]oxadiazol-5-one hydrochloride group receiving 50-mg/kg/dose. The rabbits were euthanized 8 weeks after surgery and the proximal end of the tibia and the distal end of the femur were removed from each animal.
The cartilage changes on the femoral condyles and tibial plateaus were graded separately under a dissecting microscope (Stereozoom, Bausch & Lomb, Rochester, N.Y.). The depth of erosion was graded on a scale of 0 to 4 as follows: grade 0=normal surface; Grade 1=minimal fibrillation or a slight yellowish discoloration of the surface; Grade 2=erosion extending into superficial or middle layers only; Grade 3=erosion extending into deep layers; Grade 4=erosion extending to subchondral bone. The surface area changes was measured and expressed in mm^2. Representative specimens will also be used for histologic grading (see below).
(§2) Mean values and SEM was calculated and statistical analysis was done using the Mann-Whitney U-test.

[3] = test system: Experimental Osteoarthritis in Rabbit; assay: EOA in Rabbit: histologic grading of cartilage lesions (Mankin scale); format: in vivo; conditions: for Cells (0–3) / Safranin-O Staining (0–4) / Structure (0–6) / Total (0–13): 150 mg/kg/po/day, 8 weeks after surgery, mean ± SEM
Description: as §1
Histologic evaluation was performed on sagittal sections of cartilage from the lesional areas of the femoral condyle and tibial plateau. Serial sections (5 um) were prepared and stained with safranin-O. The severity of OA lesions was graded on a scale of 0–14 by two independent observers using the histologic-histochemical scale of Mankin et al. This scale evaluates the severity of OA lesions based on the loss of safranin-O staining (scale 0–4), cellular changes (scale 0–3), invasion of tidemark by blood vessels (scale 0–1) and structural changes (scale 0–6). On this latter scale, 0 indicates normal cartilage structure and 6 indicates erosion of the cartilage down to the subchondral bone. The scoring system was based on the most severe histologic changes in the multiple sections.
as §2

[4] = test system: Experimental Osteoarthritis in Rabbit; assay: EOA in Rabbit: histological grading of synovial membrane; format: in vivo; conditions: 150 mg/kg/po/day, 8 weeks after surgery, mean ± SEM
Description: as §1
Representative specimens of synovial membrane from the medial and lateral knee compartments were dissected from underlying tissues. The specimens were fixed, embedded, and sectioned (5 um) as above, and stained with hematoxylin-eosin. For each compartment, two synovial membrane specimens were examined for scoring purposes and the highest score from each compartment was retained. The average was calculated and considered as a unit for the whole knee. The severity of synovitis was graded on a scale of 0 to 10 by two independent observers, adding the scores of 3 histologic criteria: synovial lining cell hyperplasia (scale 0–2); villous hyperplasia (scale 0–3); and degree of cellular infiltration by mononuclear and polymorphonuclear cells (scale 0–5): 0 indicates normal structure.
as §2

[5] = test system: Monosodium Iodoacetate-Induced Osteoarthritis in Rat; assay: MIA Rat: free proteoglycan in knee joint; format: in vivo; conditions: for treatment of cartilage damage (conclusion from Table 6): MIA Rat, osmotic pump 30 mg/kg/day; for Proteoglycan loss (%) / Inhibition of Proteoglycan loss (%): intravenously by osmotic pump 30 mg/kg/day; for Proteoglycan loss (%): osteoarthritic right knee joint vs contralateral left knee joint, vehicle 18.10 (1b) and 31.90 (2b); for Inhibition of Proteoglycan loss (%): versus vehicle (water)
Text: The incapacitance tester has a chamber on top with an outwardly sloping front wall that supports a rat's front limbs, and two weight sensing pads, one for each hind paw, that facilitates this determination. […] The rats were further administered either a GABA analog or vehicle (in the instant case, water) daily for 14 days. […] It is well within the level of ordinary skill in the pharmaceutical arts to determine a proper dosage of a GABA analog in this model. In the instant experiment, administration of the GABA analog was optionally by oral administration or intravenous administration via an osmotic pump. After 7 and 14 days, the hind-paw weight distribution was again determined. […] Percent inhibition of cartilage damage was calculated as the percent change in hind-paw weight distribution for treated animals versus control animals: In order to measure biochemical or histopathological end points in the MIA Rat model, some of the animals in the above study were then sacrificed, and the amounts of free proteoglycan in both the osteoarthritic right knee joint and the contralateral left knee joint were determined by biochemical analysis. The amount of free proteoglycan in the contralateral left knee joint provides a baseline value for the amount of free proteoglycan in a healthy joint. The amount of proteoglycan in the osteoarthritic right knee joint in animals further administered a GABA analog, and the amount of proteoglycan in the osteoarthritic right knee joint in animals further administered vehicle alone, were independently compared to the amount of proteoglycan in the contralateral left knee joint. The amounts of proteoglycan lost in the osteoarthritic right knee joints were expressed as percent loss of proteoglycan compared to the contralateral left knee joint control. The results are shown below in Table 6 in the column labelled, “Proteoglycan loss (%)”. Also shown in Table 6, in the column labelled “Inhibition of Proteoglycan loss (%)”, is the percent inhibition of proteoglycan loss, which was calculated as {[(proteoglycan loss from joint (%) with vehicle)−(proteoglycan loss from joint with GABA analog)]÷(proteoglycan loss from joint (%) with vehicle)}×100.

[6] = daily dose 30 mg/kg, osmotic pump
[7] = 30 mg/kg oral, twice daily dosing of the indicated dose
[8] = 50 mg/kg/dose three times per day, 8 weeks, Table 1

NCC1(Cc2nnn[nH]2)CCCCCC1 [C-[1-(1H-tetrazol-5-ylmethyl)-cycloheptyl]-methylamine]
% Inhibition (of cartilage damage, hind-paw weight distribution) [1, 6]: −33 ± 17%

Cl.NCC1(Cc2noc(=O)[nH]2)CCCCCC1 [3-(1-aminomethyl-cycloheptylmethyl)-4H-[1,2,4]oxadiazol-5-one hydrochloride]
preventing or treating cartilage damage (conclusion from Table 5) [1]: effective
% Inhibition (of cartilage damage, hind-paw weight distribution) [1, 6]: 62 ± 8%

CC(C)C[C@H](CN)CC(=O)O [Pregabalin, (S)-3-(aminomethyl)-5-methylhexanoic acid, reference compound]
% Inhibition (of cartilage damage, hind-paw weight distribution) [1, 7]: −3 ± 12%

CC(C)CC(CN)Cc1noc(=S)[nH]1.Cl (stereo not drawn)
melting point: 183 to 185 °C

Cl.NCC1(Cc2noc(=O)[nH]2)CCCCC1 [3-(1-Aminomethyl-cyclohexylmethyl)-4H-[1,2,4]oxadiazol-5-one; hydrochloride]
damage score for both the femoral condyles and the tibial plateaus (in words) [2, 8]: reduced
lesion size on the plateaus (in words) [2, 8]: reduced
Femoral Condyles Size ([2]; 150 mg/kg/po/day (50 mg/kg/dose three times per day), 8 weeks after surgery, mean ± SEM): 6.93 ± 3.1 mm^2
Tibial Plateaus Size ([2]; 150 mg/kg/po/day (50 mg/kg/dose three times per day), 8 weeks after surgery, mean ± SEM, p < 0.002): 1.95 ± 0.8 mm^2
Tibial Plateaus Grade (0–4) ([2]; 150 mg/kg/po/day (50 mg/kg/dose three times per day), 8 weeks after surgery, mean ± SEM, p < 0.02): 0.55 ± 0.2
Femoral Condyles Grade (0–4) ([2]; 150 mg/kg/po/day (50 mg/kg/dose three times per day), 8 weeks after surgery, mean ± SEM, p < 0.04): 0.67 ± 0.2
treatment of cartilage damage (conclusion from the EOA in Rabbit study) ([2]; gabapentin 100 mg/kg/dose, test compound 50 mg/kg/dose, three times per day, 8 weeks): effective
histologic damage (in words) ([3]; 50 mg/kg/dose three times per day, 8 weeks, text on Table 2 and 3): reduced histologic damage
Cells (0–3) ([3]; Femoral Condyles): 1.60 ± 0.2
Safranin-O Staining (0–4) ([3]; Femoral Condyles): 1.25 ± 0.3
Structure (0–6) ([3]; Femoral Condyles, p < 0.01): 1.35 ± 0.3
Total (0–13) ([3]; Femoral Condyles, p < 0.04): 4.20 ± 0.6
Cells (0–3) ([3]; Tibial Plateaus): 0.60 ± 0.2
Safranin-O Staining (0–4) ([3]; Tibial Plateaus): 0.18 ± 0.1
Structure (0–6) ([3]; Tibial Plateaus): 0.90 ± 0.2
Total (0–13) ([3]; Tibial Plateaus, p > 0.02): 1.77 ± 0.4
Cellular Infiltration (0–5 Scale) [4]: 0.35 ± 0.2
Synovial Lining (0–2 Scale) [4]: 0.85 ± 0.1
Villous Hyperplasia (0–3 Scale) ([4]; p < 0.001): 1.15 ± 0.1
Total (0–10) ([4]; p < 0.002): 2.35 ± 0.3
% Inhibition (of cartilage damage, hind-paw weight distribution) [1, 7]: 47 ± 20%
preventing or treating cartilage damage (conclusion from Table 5) [1]: effective
% Inhibition (of cartilage damage, hind-paw weight distribution) [1, 6]: 46 ± 10%
treatment of cartilage damage (conclusion from Table 6) [5]: effective
Proteoglycan loss (%) [5]: 6.70%
Inhibition of Proteoglycan loss (%) [5]: 63%

CC(C)CC(CN)Cc1noc(=O)[nH]1.Cl (stereo not drawn) [3-(2-Aminomethyl-4-methyl-pentyl)-4H-[1,2,4]oxadiazole-5-one; HCl]
preventing or treating cartilage damage (conclusion from Table 5) [1]: effective
% Inhibition (of cartilage damage, hind-paw weight distribution) [1, 6]: 35 ± 8%

Cl.NCC1(Cc2noc(=S)[nH]2)CCCCC1
melting point: 210 to 212 °C

CS(=O)(=O)NCCC1(CN)CCCCC1.Cl
melting point: 196 to 199 °C

CCCC(C(C)C)C(CN)CC(=O)O (stereo not drawn) (as salt: HCl)
melting point: 160 to 170 °C

Cl.NCC1(CC(=O)O)CC2CCC2C1 (stereo not drawn) [(1α,3α,5α)(3-Aminomethyl-bicyclo[3.2.0]hept-3-yl)-acetic acid hydrochloride]
% Inhibition (of cartilage damage, hind-paw weight distribution) [1, 6]: −3 ± 34%
treatment of cartilage damage (conclusion from Table 6) [5]: effective
Proteoglycan loss (%) [5]: 16.60%
Inhibition of Proteoglycan loss (%) [5]: 48%

Cl.NCC(c1noc(=O)[nH]1)C1CCCC1 (stereo not drawn) [3-(2-amino-1-cyclopentyl-ethyl)-4H-[1,2,4]oxadiazol-5-one hydrochloride]
preventing or treating cartilage damage (conclusion from Table 5) [1]: effective
% Inhibition (of cartilage damage, hind-paw weight distribution) [1, 6]: 104%
